According to article PMC9612231, “Antileishmanial Anthracene Endoperoxides: Efficacy In Vitro, Mechanisms and Structure-Activity Relationships” (Molecules, 2022):
Where two headings read alike, the source gives them in different places.

Columns and labels:
[1] = test system: Leishmania tarentolae promastigotes (LtP); test: Resazurin viability assay for LtP; type: cell-based; settings: for IC50: Leishmania tarentolae, read-out: LtP IC50; for Selectivity IC50,J774/IC50,LtP: ratio of IC50 in J774 macrophages to IC50 in LtP; for IC50,non-EP/IC50,EP: ratio of IC50 of non-EP in LtP versus IC50 of respective EP
Method: (§1) The influence of AcEP and their analogs (Ac) on the viability of cells was tested in Leishmania tarentolae promastigotes (LtP) and J774 macrophages (Table 2). Based on the changes of viability of the respective cell lines at different compound concentrations, IC50 values were calculated. In Table 2, the IC50 values in both cell lines were compared for the individual compounds. From the ratio of IC50 values in J774 macrophages to IC50 values in LtP, an in vitro selectivity was calculated.
LtP (strain P10 from Jena Bioscience, Jena, Germany) were cultivated according to manufacturer instructions up to passage 50 in brain heart infusion medium (37 g/L, pH 7.4) and supplemented with 5 mg/L hemin and 25,000 IU/L penicillin and 25 mg/L streptomycin in 50 mL TubeSpin bioreactors (TPP, Trasadingen. Switzerland). LtP were grown at 27 °C in an incubator (Ehret, Emmendingen, Germany) and agitated at a frequency of 0.05 s^−1. […] For experiments, LtP were used one day after passage. The cell number was calculated by measuring the optical density (OD) of the culture at 600 nm with a U-1100 photometer (Hitachi Ltd., Tokyo, Japan) and applying the formula × 10^6 cells/mL = OD600nm × 0.969 × 124 × dilution factor [53].
Assay medium of YEM (20.7 g/L yeast extract powder, 1.2 g/L K2HPO4, 0.2 g/L KH2PO4, 2.9 g/L glucose, pH 7.4) and PBS (1:1, v/v), 25,000 U/L penicillin, 25 mg/L streptomycin, and 7.7 µM hemin was prepared. Aliquots of 200 µL of this medium and 2 × 10^6 LtP/mL (where required) were distributed in non-treated cell culture 96-well plates. Compounds (dissolved in DMSO) were added with starting concentrations of 25 µM (Pen) or 200 µM (AcEP/Ac), and then, serial dilutions were carried out resulting in a set of concentrations (25, 5, 1, 0.2, 0.04, and 0.008 µM) or (200, 40, 8, 1.6, 0.32, and 0.064 µM). For each compound concentration, at least triplicates on each plate were performed. After incubation of the plates at 27 °C for 48 h, 50 µL of resazurin solution (final concentration in wells 20 µM) was added to each well and after 4 h of incubation, the fluorescence was measured at 560 nm excitation and 590 nm emission using a plate reader (Perkin Elmer EnSpire, Rodgau, Germany) (adapted from). Combination assays for viability in the presence of PIH and NAC were performed the same way. […] All tests were repeated at least on four different weeks of cultivation.
(§2) Calculations were carried out using Microsoft Excel 2016 (Microsoft). The graphs were created using Origin 6.1 (OriginLab Corporation, Northampton, MA, USA). For all groups of experimental data, mean and standard deviation (SD) were calculated. Statistically significant differences between groups of sample data were identified by unpaired two-tailed Student’s t-test. Differences on the level of p < 0.05 were considered significant. The number of replicates is indicated at the respective figures/tables. The half-maximal inhibitory concentrations (IC50) were determined from non-linear concentration-response curves using a four-parameter logistic model and expressed as the mean ± SD.

[2] = Formation of the xylenol orange/Fe3+ complex by EP; settings: AcEP and 250 µM FeSO4 in methanol/H2O (9:1); for XO/Fe^3+ Formation Rate: mean ± SD of 3 experiments
Source text: In subsequent experiments, we explored the activation of EP and possible cellular consequences of these compounds in Leishmania. In a chemical system, we tested how fast EP react with iron (II) and, therefore, lead to the activation of these compounds. Resulting iron (III) was detected as complex with xylenol orange (XO, Figure 3). The reaction rate of the EP stretched across two magnitudes of orders (Table 3). On the first view, there is no direct link between the activation rates and the efficiency of the compounds against Leishmania.
XO (125 µM) and butylated hydroxytoluene (4 mM) were dissolved in MeOH/H2O (9:1). FeSO4 (25 mM) in 2.5 M H2SO4 was prepared immediately before use (final concentration of 250 µM FeSO4 in the color reagent). An aliquot of 100 µL EP solution (final concentration of 100 µM) was transferred into a disposable cuvette (BRAND, Wertheim, Germany), and 1 mL of the color reagent was added. The EP that reacted slower were incubated for 0, 30, 60, and 90 min at 25 °C. The EP that reacted faster were measured every 5 s over 5 min. At these time points, the OD difference of the sample at 560 nm and 650 nm was determined using a MS1501 UV–VIS diode array spectrophotometer (Shimadzu, Kyoto, Japan). As reference, a mixture of MeOH/H2O (9:1) was used. The slope of the reaction rate was calculated using an extinction coefficient of 1.5 × 10^4 M^−1 cm^−1.

J774 macrophages = test: Resazurin viability assay for J774 macrophages; type: cell-based, murine; settings: read-out: J774 IC50
Method: as §1
The murine macrophage cell line J774A.1 (ATCC, TIB-67™, Wesel, Germany) was cultivated up to passage 30 in DMEM (high glucose, 3.7 g/L NaHCO3, pH 7.4) with 25,000 IU/L penicillin, 25 mg/L streptomycin, and 10% FCS (heat-inactivated) in 50 mL TubeSpin bioreactors. J774 cells were incubated at 37 °C and 5% CO2 on a roller culture apparatus (5 rpm) in a Heraeus Cytoperm 8080 incubator (Thermo Electron Corp., Vienna, Austria). To determine the cell count, the cell suspension was re-suspended and diluted 1:2 with phosphate-buffered saline (PBS): 137 mM NaCl, 1.4 mM KH2PO4, 4.3 mM Na2HPO4, and 2.7 mM KCl, pH 7.4. After fixation of the cells by mixing the cell suspension 1:1 with a formaldehyde solution (2%, v/v), aliquots of the resulting suspension were transferred into a standard Neubauer chamber (VWR, Austria) and counted manually using a light microscope (Motic BA310, Vienna, Austria) at a magnification of 40 times. J774 cells were passaged twice a week in a ratio of 1:10.
DMEM containing 25,000 U/L penicillin, 25 mg/L streptomycin, 10% FCS, and 1 × 10^5 J774/mL was prepared. This mixture (200 µL) was distributed in cell culture-treated 96-well plates, except the control wells which contained only DMEM. The cells were incubated for 24 h at 37 °C and 5% CO2 to allow attachment. Afterwards the medium and non-adherent cells were removed by washing with PBS, and then, 200 µL DMEM was added to attached cells. Compounds dissolved in DMSO were added in starting concentrations of 25 µM (Pen) or 200 µM (AcEP/Ac), and then, serial dilutions were carried out resulting in the same concentration steps as listed for LtP. For each compound concentration triplicates on each plate were performed. […], 50 µL of resazurin solution (final concentration 20 µM) was added, and after 4 h of incubation, the fluorescence was measured at 560 nm excitation and 590 nm emission using a plate reader (Perkin Elmer EnSpire, Rodgau, Germany). All tests were repeated at least on four different weeks of cultivation.
as §2

LtP = test: Superoxide radical formation in LtP by the EPR/CMH method; type: cell-based, Leishmania tarentolae; settings: antimycin A 20 µM, 20 min at 25 °C
Source text: Since mitochondrial inhibition can be triggered by secondary damage in the respective cells, for example, by superoxide radicals, we studied the formation of superoxide radicals in LtP by the EPR/hydroxyl-3-methoxycarbonyl-2,2,5,5-tetramethylpyrrolidine hydrochloride (CMH) method (Figure 10). […] In the presence of antimycin A (AA, an inhibitor of mitochondrial complex III), the superoxide radical formation in LtP is increased by more than 150% (Figure 11).
An aliquot of the LtP cell culture equivalent to 5 × 10^8 LtP was transferred into a 1.5 mL Eppendorf tube and was centrifuged (Hettich Universal 16, 20 °C, 2000× g, 10 min). After removal of the supernatant, the cell pellet was re-suspended in 1 mL PBS and centrifuged again and the supernatant discarded. The cell pellet was re-suspended in 1 mL of PBS with 15 mM glucose (PBS-gluc), giving a final cell density of 5 × 10^8 LtP/mL. AcEP/Ac compounds were added (100 µM final concentration) to aliquots of 50 µL of this cell suspension in 1.5 mL Eppendorf tubes and incubated for 20 min at 25 °C. Then, DFO (100 μM final concentration), DTPA (25 μM final concentration), and detection agent CMH (400 µM final concentration) were added to the aliquots before measurement. Samples containing only buffer (PBS-gluc) or only LtP (in PBS-gluc) were used as negative controls, while samples containing 20 μM AA were used as positive control. An aliquot of 17 µL suspension was aspirated into a PTFE tube (ø 0.7 mm). The tube was folded into a quartz tube (ø 4 mm outer diameter) and then transferred to the MD5 resonator of the EPR spectrometer. The measurement was started using following parameters: microwave frequency 9.682 GHz; microwave power 20 mW, modulation frequency 100 kHz; modulation amplitude 1 G; time constant 0.82 s; center field 3448 G; sweep width 100 G; scan time 84 s; attenuation 70 dB; separate scans 5. Based on a calibration curve with carboxy proxyl (CP^●) changes of the peak-to-peak intensity of CM^● spectra were converted to CMH oxidation rates (superoxide radical generation).

[3] = resazurin viability, endpoint 48 h, 2 × 10^6 LtP/mL, mean ± SD of 4–8 experiments
[4] = Mus musculus, J774, 48 h, resazurin viability, endpoint 48 h, 10^5 J774 cells/mL, mean ± SD of 4–8 experiments

Row | SMILES | IC50 [1, 3] | Selectivity IC50,J774/IC50,LtP [1] | Log10 (Formation Rate) [2] | XO/Fe^3+ Formation Rate [2] | IC50 (J774 macrophages; [4]) | other results
1 | c1ccc2c(c1)C1OOC2c2ccccc21 [AcEP] | 19.7 ± 14.1 µM | 0.06 | 3.90 | 8110 ± 4197 nmol/min | 1.21 ± 0.32 µM | IC50,non-EP/IC50,EP [1]: >10.1
2 | CC(=O)OCC1OC(OC23OOC(c4ccccc42)c2ccccc23)C(OC(C)=O)C(OC(C)=O)C1OC(C)=O (stereo not drawn) [MonoGluAcEP] | 32.3 ± 23.4 µM | 4.7 | 4.10 | 12,697 ± 1500 nmol/min | 153 ± 82.1 µM | IC50,non-EP/IC50,EP [1]: 4.89
3 | CC(=O)OCC1OC(Oc2c3ccccc3c(OC3OC(COC(C)=O)C(OC(C)=O)C(OC(C)=O)C3OC(C)=O)c3ccccc23)C(OC(C)=O)C(OC(C)=O)C1OC(C)=O (stereo not drawn) [BisGluAc] | > 200 µM |  |  |  | > 200 µM | 
4 | N=C(N)c1ccc(OCCCCCOc2ccc(C(=N)N)cc2)cc1 [Pen, pentamidine, reference compound] | 0.52 ± 0.16 µM |  |  |  | ~12 µM | LtP IC50 [1, 3]: submicromolar; IC50 (J774 macrophages; resazurin viability, endpoint 48 h, 10^5 J774 cells/mL, mean ± SD of 4–8 experiments): 12.3 ± 3.96 µM
5 | CC(=O)OCC1OC(OC23OOC(OC4OC(COC(C)=O)C(OC(C)=O)C(OC(C)=O)C4OC(C)=O)(c4ccccc42)c2ccccc23)C(OC(C)=O)C(OC(C)=O)C1OC(C)=O (stereo not drawn) [BisGluAcEP] | > 200 µM |  | 3.83 | 6800 ± 326 nmol/min | > 200 µM | 
6 | CC(=O)OCC1OC(C23C=C(C(C)(C)C)C(C4OC(COC(C)=O)C(OC(C)=O)C(OC(C)=O)C4OC(C)=O)(OO2)c2ccccc23)C(OC(C)=O)C(OC(C)=O)C1OC(C)=O (stereo not drawn) [MB359EP] | > 200 µM |  | 4.26 | 18,533 ± 1147 nmol/min | > 200 µM | 
7 | COc1ccccc1-c1c2ccccc2c(-c2ccccc2OC)c2ccccc12 [oOMeAc] | 73.3 ± 25.2 µM | >2.7 |  |  | > 200 µM | 
8 | c1cncc(C23OOC(c4cccnc4)(c4ccccc42)c2ccccc23)c1 [mPyAcEP] | > 200 µM |  | 2.85 | 708 ± 37 nmol/min | > 200 µM | IC50,non-EP/IC50,EP [1]: <0.26
9 | CC(=O)OCC1OC(Oc2c3ccccc3cc3ccccc23)C(OC(C)=O)C(OC(C)=O)C1OC(C)=O (stereo not drawn) [MonoGluAc] | 158 ± 45.1 µM | 0.6 |  |  | 101 ± 7.8 µM | 
10 | CCCCCC[C@H]1C(=O)O[C@H](C)[C@H](NC(=O)c2cccc(NC=O)c2O)C(=O)O[C@@H](C)[C@@H]1OC(=O)CC(C)C [antimycin A, reference compound] |  |  |  |  |  | Increase of superoxide radical formation in LtP (LtP): more than 150%
11 | c1ccc(-c2c3ccccc3c(-c3ccccc3)c3ccccc23)cc1 [DPAc] | 197 ± 92 µM | 0.7 |  |  | 136 ± 35 µM | Activity against LtP, in words ([1]; viability assay): rather inactive
12 | c1ccc(-c2c3ccccc3c(-c3ccccn3)c3ccccc23)nc1 [oPyAc] | 34.5 ± 12.8 µM | 2.0 |  |  | 70 ± 10.5 µM | 
13 | c1cncc(-c2c3ccccc3c(-c3cccnc3)c3ccccc23)c1 [mPyAc] | 52.5 ± 3.3 µM | 1.2 |  |  | 63.7 ± 7.6 µM | 
14 | CC(C)(C)c1ccc2c(-c3ccccn3)c3ccccc3c(-c3ccccn3)c2c1 [pPyBuAc] |  | 57 |  |  |  | IC50 ([1]; 48 h): 1.86 ± 1.1 µM; IC50 (J774 macrophages; Mus musculus, J774, 48 h): 107 ± 46 µM
